# According to ChEMBL document CHEMBL1147144, “Novel styrylpyridines as probes for SPECT imaging of amyloid plaques” (J Med Chem, 2007):
# Legend:
# [1] = biological target: Amyloid-beta precursor protein (Homo sapiens, UniProt P05067); experiment: Displacement of […] from Abeta peptide plaques in Alzheimer's disease patient brain
# [2] = test system: Blood; experiment: Biodistribution in ICR mouse blood at 5 to 10 uCi, iv after 2 hrs; type: ADME, organism-based; settings: in vivo
# [3] = test system: Spleen; experiment: Biodistribution in ICR mouse spleen at 5 to 10 uCi, iv after 2 hrs; type: ADME, organism-based; settings: in vivo
# [4] = test system: Muscle tissue; experiment: Biodistribution in ICR mouse muscle at 5 to 10 uCi, iv after 2 hrs; type: ADME, organism-based; settings: in vivo
# [5] = test system: Kidney; experiment: Biodistribution in ICR mouse kidney at 5 to 10 uCi, iv after 2 mins; type: ADME, organism-based; settings: in vivo
# [6] = test system: Liver; experiment: Biodistribution in ICR mouse liver at 5 to 10 uCi, iv after 2 mins; type: ADME, organism-based; settings: in vivo
# [7] = test system: Spleen; experiment: Biodistribution in ICR mouse spleen at 5 to 10 uCi, iv after 30 mins; type: ADME, organism-based; settings: in vivo, 0.5 h
# [8] = test system: Liver; experiment: Biodistribution in ICR mouse liver at 5 to 10 uCi, iv after 1 hr; type: ADME, organism-based; settings: in vivo
# [9] = test system: Kidney; experiment: Biodistribution in ICR mouse kidney at 5 to 10 uCi, iv after 1 hr; type: ADME, organism-based; settings: in vivo
# [10] = test system: Thyroid gland; experiment: Biodistribution in ICR mouse thyroid at 5 to 10 uCi, iv after 2 hrs; type: ADME, organism-based; settings: in vivo
# [11] = test system: Brain; experiment: Ratio of drug distribution in brain after 2 mins to 30 mins in ICR mouse at 5 to 10 uCi, iv; type: ADME, organism-based; settings: in vivo
# [12] = test system: Zone of skin; experiment: Biodistribution in ICR mouse skin at 5 to 10 uCi, iv after 30 mins; type: ADME, organism-based; settings: in vivo, 0.5 h
# [13] = test system: Muscle tissue; experiment: Biodistribution in ICR mouse muscle at 5 to 10 uCi, iv after 1 hr; type: ADME, organism-based; settings: in vivo
# [14] = test system: Liver; experiment: Biodistribution in ICR mouse liver at 5 to 10 uCi, iv after 2 hrs; type: ADME, organism-based; settings: in vivo
# [15] = test system: Brain; experiment: Biodistribution in ICR mouse brain at 5 to 10 uCi, iv after 1 hr; type: ADME, organism-based; settings: in vivo
# [16] = test system: Spleen; experiment: Biodistribution in ICR mouse spleen at 5 to 10 uCi, iv after 2 mins; type: ADME, organism-based; settings: in vivo
# [17] = test system: Heart; experiment: Biodistribution in ICR mouse heart at 5 to 10 uCi, iv after 2 mins; type: ADME, organism-based; settings: in vivo
# [18] = test system: Heart; experiment: Biodistribution in ICR mouse heart at 5 to 10 uCi, iv after 1 hr; type: ADME, organism-based; settings: in vivo
# [19] = test system: Kidney; experiment: Biodistribution in ICR mouse kidney at 5 to 10 uCi, iv after 2 hrs; type: ADME, organism-based; settings: in vivo
# [20] = test system: Blood; experiment: Biodistribution in ICR mouse blood at 5 to 10 uCi, iv after 1 hr; type: ADME, organism-based; settings: in vivo
# [21] = Partition coefficient, log P at pH 7.4; type: physicochemical; settings: octanol/water
# [22] = test system: Heart; experiment: Biodistribution in ICR mouse heart at 5 to 10 uCi, iv after 30 mins; type: ADME, organism-based; settings: in vivo, 0.5 h
# [23] = test system: Lung; experiment: Biodistribution in ICR mouse lung at 5 to 10 uCi, iv after 2 mins; type: ADME, organism-based; settings: in vivo
# [24] = test system: Thyroid gland; experiment: Biodistribution in ICR mouse thyroid at 5 to 10 uCi, iv after 2 mins; type: ADME, organism-based; settings: in vivo
# [25] = test system: Brain; experiment: Biodistribution in ICR mouse brain at 5 to 10 uCi, iv after 2 mins; type: ADME, organism-based; settings: in vivo
# [26] = test system: Thyroid gland; experiment: Biodistribution in ICR mouse thyroid at 5 to 10 uCi, iv after 30 mins; type: ADME, organism-based; settings: in vivo, 0.5 h
# [27] = test system: Zone of skin; experiment: Biodistribution in ICR mouse skin at 5 to 10 uCi, iv after 2 mins; type: ADME, organism-based; settings: in vivo
# [28] = test system: Muscle tissue; experiment: Biodistribution in ICR mouse muscle at 5 to 10 uCi, iv after 2 mins; type: ADME, organism-based; settings: in vivo
# [29] = test system: Spleen; experiment: Biodistribution in ICR mouse spleen at 5 to 10 uCi, iv after 1 hr; type: ADME, organism-based; settings: in vivo
# [30] = test system: Liver; experiment: Biodistribution in ICR mouse liver at 5 to 10 uCi, iv after 30 mins; type: ADME, organism-based; settings: in vivo, 0.5 h
# [31] = test system: Thyroid gland; experiment: Biodistribution in ICR mouse thyroid at 5 to 10 uCi, iv after 1 hr; type: ADME, organism-based; settings: in vivo
# [32] = test system: Heart; experiment: Biodistribution in ICR mouse heart at 5 to 10 uCi, iv after 2 hrs; type: ADME, organism-based; settings: in vivo
# [33] = test system: Muscle tissue; experiment: Biodistribution in ICR mouse muscle at 5 to 10 uCi, iv after 30 mins; type: ADME, organism-based; settings: in vivo, 0.5 h
# [34] = test system: Blood; experiment: Biodistribution in ICR mouse blood at 5 to 10 uCi, iv after 2 mins; type: ADME, organism-based; settings: in vivo
# [35] = test system: Kidney; experiment: Biodistribution in ICR mouse kidney at 5 to 10 uCi, iv after 30 mins; type: ADME, organism-based; settings: in vivo, 0.5 h
# [36] = test system: Zone of skin; experiment: Biodistribution in ICR mouse skin at 5 to 10 uCi, iv after 2 hrs; type: ADME, organism-based; settings: in vivo
# [37] = test system: Lung; experiment: Biodistribution in ICR mouse lung at 5 to 10 uCi, iv after 30 mins; type: ADME, organism-based; settings: in vivo, 0.5 h
# [38] = test system: Lung; experiment: Biodistribution in ICR mouse lung at 5 to 10 uCi, iv after 2 hrs; type: ADME, organism-based; settings: in vivo
# [39] = test system: Brain; experiment: Biodistribution in ICR mouse brain at 5 to 10 uCi, iv after 2 hrs; type: ADME, organism-based; settings: in vivo
# [40] = test system: Lung; experiment: Biodistribution in ICR mouse lung at 5 to 10 uCi, iv after 1 hr; type: ADME, organism-based; settings: in vivo
# [41] = test system: Zone of skin; experiment: Biodistribution in ICR mouse skin at 5 to 10 uCi, iv after 1 hr; type: ADME, organism-based; settings: in vivo
# [42] = test system: Blood; experiment: Biodistribution in ICR mouse blood at 5 to 10 uCi, iv after 30 mins; type: ADME, organism-based; settings: in vivo, 0.5 h
# [43] = test system: Brain; experiment: Biodistribution in ICR mouse brain at 5 to 10 uCi, iv after 30 mins; type: ADME, organism-based; settings: in vivo, 0.5 h
# Chain of Amyloid-beta precursor protein (P05067 whole entry): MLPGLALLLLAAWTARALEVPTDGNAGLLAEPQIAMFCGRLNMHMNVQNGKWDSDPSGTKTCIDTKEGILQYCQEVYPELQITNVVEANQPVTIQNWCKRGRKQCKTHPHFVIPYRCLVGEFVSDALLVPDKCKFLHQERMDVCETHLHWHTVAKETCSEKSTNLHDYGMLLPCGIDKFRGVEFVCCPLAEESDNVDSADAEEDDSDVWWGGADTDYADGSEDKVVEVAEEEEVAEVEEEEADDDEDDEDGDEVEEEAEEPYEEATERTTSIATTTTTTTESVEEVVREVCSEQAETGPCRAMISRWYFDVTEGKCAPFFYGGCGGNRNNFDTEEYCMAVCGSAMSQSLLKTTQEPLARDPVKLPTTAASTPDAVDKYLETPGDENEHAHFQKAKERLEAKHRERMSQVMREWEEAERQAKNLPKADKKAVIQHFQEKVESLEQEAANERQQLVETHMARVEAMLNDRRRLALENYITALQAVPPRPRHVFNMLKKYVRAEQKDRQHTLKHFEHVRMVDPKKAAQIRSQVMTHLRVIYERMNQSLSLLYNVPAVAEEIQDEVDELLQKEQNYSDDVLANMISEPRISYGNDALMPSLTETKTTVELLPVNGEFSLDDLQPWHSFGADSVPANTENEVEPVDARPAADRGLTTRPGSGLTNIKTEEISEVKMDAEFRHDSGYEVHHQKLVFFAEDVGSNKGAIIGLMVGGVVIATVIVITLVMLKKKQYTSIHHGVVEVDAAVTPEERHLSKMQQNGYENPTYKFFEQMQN
compound,measurement,setting,value
OCCOc1ncc(C=Cc2ccc(O)cc2)cc1Br,Ki,[1],6.8 nM
CNc1ccc(/C=C/c2cnc(OCCOCCOCCF)c(Br)c2)cc1,Ki,[1],4.5 nM
CN(C)c1ccc(/C=C/c2cnc(OCCO)c(I)c2)cc1,Ki,[1],7.5 nM
CN(C)c1ccc(/C=C/c2cnc(OCCOCCOCCF)c([125I])c2)cc1,Drug uptake,[2],1.45 % ID/g
same,Drug uptake,[3],0.79 % ID/g
same,Drug uptake,[4],0.53 % ID/g
same,Drug uptake,[5],16.6 % ID/g
same,Drug uptake,[6],22.2 % ID/g
same,Drug uptake,[7],1.42 % ID/g
same,Drug uptake,[8],5.34 % ID/g
same,Drug uptake,[9],2.3 % ID/g
same,Drug uptake,[10],60.8 % ID/g
same,Ratio,[11],2.09
same,Drug uptake,[12],1.47 % ID/g
same,Drug uptake,[13],0.59 % ID/g
same,Drug uptake,[14],5.62 % ID/g
same,Drug uptake,[15],0.68 % ID/g
same,Drug uptake,[16],4.47 % ID/g
same,Drug uptake,[17],12.76 % ID/g
same,Drug uptake,[18],0.97 % ID/g
same,Drug uptake,[19],1.71 % ID/g
same,Drug uptake,[20],1.65 % ID/g
same,logD,[21],2.2
same,Drug uptake,[22],1.63 % ID/g
same,Drug uptake,[23],10.1 % ID/g
same,Drug uptake,[24],3.89 % ID/g
same,Drug uptake,[25],4.03 % ID/g
same,Drug uptake,[26],16.2 % ID/g
same,Drug uptake,[27],0.54 % ID/g
same,Drug uptake,[28],0.9 % ID/g
same,Drug uptake,[29],0.99 % ID/g
same,Drug uptake,[30],9.54 % ID/g
same,Drug uptake,[31],24.2 % ID/g
same,Drug uptake,[32],0.73 % ID/g
same,Drug uptake,[33],1 % ID/g
same,Drug uptake,[34],2.7 % ID/g
same,Drug uptake,[35],3.32 % ID/g
same,Drug uptake,[36],1.23 % ID/g
same,Drug uptake,[37],2.5 % ID/g
same,Drug uptake,[38],1.33 % ID/g
same,Drug uptake,[39],0.26 % ID/g
same,Drug uptake,[40],1.62 % ID/g
same,Drug uptake,[41],1.59 % ID/g
same,Drug uptake,[42],2.05 % ID/g
same,Drug uptake,[43],1.93 % ID/g
CNc1ccc(/C=C/c2cnc(OCCO)c([125I])c2)cc1,Drug uptake,[2],1.96 % ID/g
same,Drug uptake,[3],1.08 % ID/g
same,Drug uptake,[4],0.38 % ID/g
same,Drug uptake,[5],11.5 % ID/g
same,Drug uptake,[6],20.8 % ID/g
same,Drug uptake,[7],1.34 % ID/g
same,Drug uptake,[8],5.62 % ID/g
same,Drug uptake,[9],2.16 % ID/g
same,Drug uptake,[10],99.9 % ID/g
same,Ratio,[11],9.13
same,Drug uptake,[12],1.86 % ID/g
same,Drug uptake,[13],0.42 % ID/g
same,Drug uptake,[14],3.41 % ID/g
same,Drug uptake,[15],0.26 % ID/g
same,Drug uptake,[16],4.08 % ID/g
same,Drug uptake,[17],7.16 % ID/g
same,Drug uptake,[18],0.88 % ID/g
same,Drug uptake,[19],1.53 % ID/g
same,Drug uptake,[20],1.81 % ID/g
same,logD,[21],2.2
same,Drug uptake,[22],1.5 % ID/g
same,Drug uptake,[23],7.43 % ID/g
same,Drug uptake,[24],6.31 % ID/g
same,Drug uptake,[25],8.04 % ID/g
same,Drug uptake,[26],17.2 % ID/g
same,Drug uptake,[27],0.95 % ID/g
same,Drug uptake,[28],1.15 % ID/g
same,Drug uptake,[29],0.87 % ID/g
same,Drug uptake,[30],12.6 % ID/g
same,Drug uptake,[31],36.7 % ID/g
same,Drug uptake,[32],0.76 % ID/g
same,Drug uptake,[33],0.91 % ID/g
same,Drug uptake,[34],4.14 % ID/g
same,Drug uptake,[35],3.73 % ID/g
same,Drug uptake,[36],1.43 % ID/g
same,Drug uptake,[37],2.67 % ID/g
same,Drug uptake,[38],1.58 % ID/g
same,Drug uptake,[39],0.15 % ID/g
same,Drug uptake,[40],1.76 % ID/g
same,Drug uptake,[41],1.29 % ID/g
same,Drug uptake,[42],3.08 % ID/g
same,Drug uptake,[43],0.88 % ID/g
Oc1ccc(/C=C/c2cnc(OCCOCCOCCF)c(Br)c2)cc1,Ki,[1],14.2 nM
OCCOc1ncc(/C=C/c2ccc(O)cc2)cc1I,Ki,[1],15.5 nM
CNc1ccc(/C=C/c2cnc(OCCO)c(Br)c2)cc1,Ki,[1],5 nM
